Holding throughout (assay): NCI tumour cell line growth inhibition, 48 h
Test [1] relates to KM-20L2.
In test [2] the test system is LXFL 529.
For test [3], the system named is M19-MEL.
In test [4] the test system is DMS-114.
The subject of test [5] is SNB-78.
Test [6] deals with RXF 631.
Test [7] has as its system DLD-1.
In test [8] the test system is DMS-273.
The test system of test [9] is XF498.

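Cells were grown in 96-well plates and exposed to each compound for 48 hours at five concentrations; endpoints were interpolated linearly between bracketing concentrations, or set to the highest concentration if not reached. GI50: concentration for 50% inhibition of growth.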 Active and inactive are the calls of the source. No stated cut-off is given here; in the data, active = GI50 up to about 1.1 µM and inactive = higher.

Here are results for 19 compounds from ChEMBL document CHEMBL1201862, “PubChem BioAssay data set” (2004).

`O=C(N/C(=C/c1cccc([N+](=O)[O-])c1)c1nc2cc(Cl)ccc2[nH]1)c1ccccc1`: the GI50 in test [1] is 10.5 µM (inactive); in [2], 12.6 µM (inactive); in [3], 24 µM (inactive); in test [4], 8.51 µM (inactive); in test [5] it was 39.9 µM (inactive); in [6], 10.5 µM (inactive).
For `COc1cc(C2C3=C(COC3=O)Oc3cc4c(cc32)OCO4)cc(OC)c1OC` (stereo unspecified), the GI50 in test [1] is 0.0139 µM (active); in test [2], 0.00718 µM (active); in test [7] it was 0.022 µM (active); in [3], 0.0269 µM (active); in test [4] it was 0.00962 µM (active); in test [8] it was 0.01 µM (active). Also, in test [5], the GI50 is 0.00849 µM (active).
Regarding `CCCCCCN(CCCCCC)C1=CC(=O)C(=O)c2ccccc21`, the GI50 in test [1] is 18.2 µM (inactive); in [2], 19.3 µM (inactive); in test [7], 15.2 µM (inactive); in [3], 2.26 µM (inactive); in [8], 19.8 µM (inactive); in test [5], 23 µM (inactive). Further, the GI50 in test [6] was 14.7 µM (inactive).
As for `O=C1C[C@@H]2[C@@H](CCC23CCCC3)N1`, the GI50 in [1], in test [2], in test [7], in test [3], in test [8] and in test [5] was > 100 µM (inactive) in each case.
On to `O=C1OC(=O)C2C1C1C(c3ccccc3)=C(c3ccccc3)C2(O)C2C(=O)OC(=O)C12` (stereo unspecified), for which the GI50 in [1] is 91 µM (inactive); in test [2], 58.3 µM (inactive); in test [7] it was 91 µM (inactive); in test [3] it was > 100 µM (inactive); in test [4] it was 28.6 µM (inactive); in test [5], 97.7 µM (inactive).
On to `CC(C)(C)OC(=O)NCCc1cccc2c1oc1c(CCC(=O)O)cccc12`, for which the GI50 in test [9], in test [1], in [2], in test [7], in [3] and in test [4] was > 100 µM (inactive) throughout. Besides, the GI50 in [8] and in [5] was > 100 µM (inactive) each time.
Take `CC1OC(=O)C(C(C)C)NC(=O)C(C(C)C)OC(=O)C(C(C)C)NC(=O)C(C)OC(=O)C(C(C)C)NC(=O)C(C(C)C)OC(=O)C(C(C)C)NC(=O)C(C)OC(=O)C(C(C)C)NC(=O)C(C(C)C)OC(=O)C(C(C)C)NC1=O` (stereo unspecified): the GI50 was 0.0034 µM (active) in test [1]; 0.00326 µM (active) in test [7]; 0.00367 µM (active) in test [3]; 0.0025 µM (active) in test [4]; 0.0025 µM (active) in [8]; 0.00391 µM (active) in test [5].
For `COc1ccc(/C=C2\CCC(CN(C)C)C2=O)cc1` (stereo unspecified), the GI50 in test [9] was 4.21 µM (inactive); in test [1], 17.1 µM (inactive); in test [2], 2.05 µM (inactive); in test [7], 3.62 µM (inactive); in test [3], 8.71 µM (inactive); in test [4] it was 5.98 µM (inactive). Besides, the GI50 in test [5] was 13.6 µM (inactive).
Take `Cc1c(C)n(COCCO)c2ncnc(N)c12`: the GI50 in test [9], in [1], in test [2], in [7], in test [3] and in test [8] was > 100 µM (inactive) throughout.
Take `O=C(O)c1cc2c3ccccc3nc-2c[nH]1`: the GI50 in [1], in test [2], in [7], in [3], in test [4] and in test [8] was > 100 µM (inactive) throughout. In addition, the GI50 in test [5] was > 100 µM (inactive).
Turning to `COC(=O)CCC(=O)CC(=O)C(=O)Nc1ccc(F)cc1`, the GI50 in test [1], in test [2], in test [7], in test [3], in [4] and in test [8] was > 100 µM (inactive) throughout. Besides, the GI50 in [5] was > 100 µM (inactive).
With `N#C/C(=C/c1ccsc1)C(=O)c1ccccc1`, the GI50 in test [9], in [1], in test [2], in test [7], in test [3] and in test [4] was > 100 µM (inactive) in each case. Further, the GI50 in [8] and in test [5] was > 100 µM (inactive) throughout.
For `CN(C)c1ccc(/C=N\N2C(=O)c3ccccc3C2=O)cc1`, the GI50 in [9], in test [1], in test [2], in test [7], in [3] and in test [4] was > 100 µM (inactive) each time. The GI50 in [8] and in test [5] was > 100 µM (inactive) in each case.
For the compound `COC(=O)C1=Cc2cn(S(=O)(=O)c3ccc(C)cc3)c3cccc(c23)C(C=C(C)C)N1C(C)=O` (stereo unspecified), the GI50 is 9.55 µM (inactive) in test [9]; 69.3 µM (inactive) in test [1]; 32 µM (inactive) in test [2]; 14.7 µM (inactive) in test [7]; 21.4 µM (inactive) in test [3]; 11.5 µM (inactive) in [4]. Moreover, the GI50 in test [8] is 6.01 µM (inactive); in test [5], 24.5 µM (inactive).
Regarding `O=C1C=CC(=O)c2c1ccc1c3ccccc3n(-c3ccccn3)c21`, the GI50 in [9] is 15.6 µM (inactive); in test [2], 14.8 µM (inactive); in test [7], 16.5 µM (inactive); in [3], 21 µM (inactive); in [4] it was 20.6 µM (inactive); in [8] it was 39.4 µM (inactive). In addition, in [5], the GI50 is > 100 µM (inactive).
Take `COC(=O)C1=C(C(=O)OC)C2(C(=O)OC)OC1(OC)C(C1(C(=O)OC)C(C(=O)OC)=C1C(=O)OC)=C2C(=O)OC` (stereo unspecified): the GI50 in test [9], in test [1], in [2], in [7], in [3] and in [4] was > 100 µM (inactive) in each case. Moreover, the GI50 in test [8] and in test [5] was > 100 µM (inactive) in each case.
For `C=CC1=CSNN1`, the GI50 in test [1], in test [2], in [7], in [3], in test [4] and in [8] was > 100 µM (inactive) throughout.
With `N#Cc1c(-c2ccc(Cl)cc2)c(-c2ccc(Cl)cc2)nn(CCOC(=O)CCC(=O)O)c1=O`, the GI50 in test [1] is 2.28 µM (inactive); in test [2], 1.03 µM (active); in [7], 4.13 µM (inactive); in test [3], 1.8 µM (inactive); in test [4] it was 0.931 µM (active); in test [8], 2.08 µM (inactive).
With `Nc1ccn(CCCC(c2ccccc2)P(=O)(O)O)c(=O)n1` (stereo unspecified), the GI50 in test [1], in test [2], in test [7], in test [3], in [4] and in [8] was > 100 µM (inactive) throughout. The GI50 in [5] is > 100 µM (inactive).
